Read-outs that look alike come from different tables or passages of the source.
Experiments:
[1] = molecular target: T1, GRPR of GL261 cell line (Mus musculus, UniProt P21729); experiment: Targeted cell imaging (uptake and RM26 blocking); format: cell-based; details: 500 μM RM26 before 100 μM IRDye800-RM26, imaged after 1 h
T1 construct: host or cells: GL261 (stably expressing firefly luciferase)
Excerpt: Subsequently, we washed the cells with 1 × PBS 3 times and scanned then using fluorescence microscopy (BZ‐X800; KEYENCE, Japan). The NIR emission was collected with an excitation filter (775 ± 50 nm), dichromatic mirror (810 nm), and a barrier filter (845 ± 55 nm).

[2] = cited from earlier work; for brightness (NIR-I) higher than ICG: 100 μM
Excerpt: Near‐infrared fluorescence imaging technology is widely used for FGS due to its non‐invasive, real‐time, and multi‐dimensional monitoring characteristics. The combination of the reducing photon scattering, light absorption, and tissue autofluorescence provides a clear view deep into the body, capable of extraordinarily high SBR that are only accomplishable when moving from the NIR‐I to NIR‐II region. Because some organic dyes are relatively easy to synthesize, modifiable, and have low biological toxicity, several studies recently explored clinically approved or commercially available NIR‐I cya ...

[3] = test system: glioblastoma (GL261 cells); experiment: Histological colocalization of fluorescence signal and tumor (Manders' coefficients); format: in vivo, C57BL/6 mouse; details: 120 mg/kg intraperitoneally, 4 h post-injection
Experimental: We equally analyzed the histological colocalization of the fluorescence signal and cancer cells. […] Frozen sectioning was performed after fixation of the brain specimen in Tissue‐Tek O.C.T. using a cryostat. The fixed tissue was sliced axially at 30 μm thickness and mounted on a slide for immediate fluorescence micro imaging with the BZ‐X800. Multiple slices were performed across the tumor. Subsequently, we stained some slices with H&E according to common standard procedure, and imaged them with BZ‐X800 or Vectra Polaris. […] The mouse was euthanized and prepared for section imaging at 4 h post‐injection. The 5‐ALA emission was collected with an excitation filter (545 ± 25 nm), dichromatic mirror (565 nm), and a barrier filter (605 ± 70 nm). Quantification of the colocalization of tumor on H&E staining, 5‐ALA, and NIR were performed with the JACoP plugin for ImageJ using the Manders' coefficients.[28] Values of these coefficients range from 0 to 1 and express the fraction of intensity in a channel located in pixels where there is above threshold intensity in the other color channel.

T1 sequence (P21729 whole entry): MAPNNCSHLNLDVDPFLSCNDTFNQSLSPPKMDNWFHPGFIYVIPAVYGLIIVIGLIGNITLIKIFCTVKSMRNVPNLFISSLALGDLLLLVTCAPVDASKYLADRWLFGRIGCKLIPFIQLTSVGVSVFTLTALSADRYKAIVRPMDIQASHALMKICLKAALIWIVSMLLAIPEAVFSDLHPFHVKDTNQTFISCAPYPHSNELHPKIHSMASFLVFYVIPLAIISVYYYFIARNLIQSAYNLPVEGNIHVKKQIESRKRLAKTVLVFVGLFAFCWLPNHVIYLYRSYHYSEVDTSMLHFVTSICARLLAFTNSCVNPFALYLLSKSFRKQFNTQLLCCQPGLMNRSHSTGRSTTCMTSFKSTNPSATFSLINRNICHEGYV

With “D‐Phe‐Gln‐Trp‐Ala‐Val‐Gly‐His‐Sta‐Leu‐NH2 [RM26]” the “effect of RM26 blocking on IRDye800-RM26 uptake” value [1] was “reduced”.

In the case of `CC1(C)C(/C=C/C=C/C=C/C=C2\N(CCCCS(=O)(=O)O)c3ccc4ccccc4c3C2(C)C)=[N+](CCCCS(=O)(=O)[O-])c2ccc3ccccc3c21` [ICG, indocyanine green], the “brightness relative to IRDye800CW” value ([2]; bovine blood, 0.01 mg/mL) is listed as 12.3 times and the “concentration with maximum fluorescence intensity” value ([2]; in BSA) is listed as 0.01 to 0.02 mg/mL.

In the case of `CC1(C)C(/C=C/C2=C(Oc3ccc(S(=O)(=O)O)cc3)C(=C/C=C3/N(CCCCS(=O)(=O)O)c4ccc(S(=O)(=O)[O-])cc4C3(C)C)/CCC2)=[N+](CCCCCC(=O)O)c2ccc(S(=O)(=O)O)cc21` [IRDye800], the “brightness (NIR-I) higher than ICG” value ([2]; FBS) is given as 1.8 fold, the “quantum yield (QY)” value ([2]; NIR-I, serum) is given as 12% and the “brightness (NIR-I) higher than ICG” value ([2]; PBS) is given as 3.3 fold.

In the case of `NCC(=O)CCC(=O)O` [5-ALA, 5‐aminolevulinic acid], the “fraction of glioblastoma on 5-ALA overlapping tumor on H&E (Manders' coefficient)” value [3] is reported as 99.8% and the “fraction of tumor on H&E overlapping tumor on 5-ALA (Manders' coefficient)” value [3] is reported as 63.8%.
